Assays:
Mus musculus [1] = test: Analgesic activity in mouse assessed as protection against acetic acid-induced writhing at 5 mg/kg, sc administered 30 mins before acetic acid challenge measured after 4 hrs relative to control; type: functional; conditions: route subcutaneous
Mus musculus [2] = test: Analgesic activity in mouse assessed as protection against acetic acid-induced writhing at 5 mg/kg, sc administered 30 mins before acetic acid challenge measured after 3 hrs relative to control; type: functional; conditions: route subcutaneous
Mus musculus [3] = test: Analgesic activity in mouse assessed as protection against acetic acid-induced writhing at 5 mg/kg, sc administered 30 mins before acetic acid challenge measured after 2 hrs relative to control; type: functional; conditions: route subcutaneous
Mus musculus [4] = test: Analgesic activity in mouse assessed as protection against acetic acid-induced writhing at 5 mg/kg, sc administered 30 mins before acetic acid challenge measured after 1 hr relative to control; type: functional; conditions: route subcutaneous
Rattus norvegicus [5] = test: Antiinflammatory activity against carrageenan-induced foot paw edema in rat assessed as reduction in paw size at one-tenth of LD50 administered subcutaneously 30 mins before carrageenan challenge measured after 3 hrs relative to control; type: functional; design: scale not given: the % may be the effect or the level left
Rattus norvegicus [6] = test: Antipyretic activity against yeast-induced hyperpyrexia in hyperthermic rat assessed as rectal temperature at one-tenth of LD50 administered subcutaneously 18 hrs after yeast challenge measured after 2 hrs (Rvb=39.11 +/- 0.26 degC); type: functional
Rattus norvegicus [7] = test: Antipyretic activity against yeast-induced hyperpyrexia in hyperthermic rat assessed as rectal temperature at one-tenth of LD50 administered subcutaneously 18 hrs after yeast challenge measured after 3 hrs (Rvb=39.20 +/- 0.24 degC); type: functional
Rattus norvegicus [8] = test: Antipyretic activity against yeast-induced hyperpyrexia in hyperthermic rat assessed as rectal temperature at one-tenth of LD50 administered subcutaneously 18 hrs after yeast challenge measured after 4 hrs (Rvb=39.17 +/- 0.20 degC); type: functional
Mus musculus [9] = test: Analgesic activity in mouse assessed as protection against acetic acid-induced writhing at one-tenth of LD50 administered subcutaneously 30 mins before acetic acid challenge measured after 1 hr relative to control; type: functional
Rattus norvegicus [10] = test: Antipyretic activity against yeast-induced hyperpyrexia in hyperthermic rat assessed as rectal temperature at one-tenth of LD50 administered subcutaneously 18 hrs after yeast challenge measured after 1 hr (Rvb=39.24 +/- 0.22 degC); type: functional
[11] = Toxicity in sc dosed albino mouse up to 24 hrs; type: organism-based; conditions: in vivo
Mus musculus [12] = test: Analgesic activity in mouse assessed as protection against acetic acid-induced writhing at one-tenth of LD50 administered subcutaneously 30 mins before acetic acid challenge measured after 3 hrs relative to control; type: functional
Mus musculus [13] = test: Analgesic activity in mouse assessed as protection against acetic acid-induced writhing at one-tenth of LD50 administered subcutaneously 30 mins before acetic acid challenge measured after 2 hrs relative to control; type: functional
Mus musculus [14] = test: Analgesic activity in mouse assessed as protection against acetic acid-induced writhing at one-tenth of LD50 administered subcutaneously 30 mins before acetic acid challenge measured after 4 hrs relative to control; type: functional
Rattus norvegicus [15] = test: Antipyretic activity against yeast-induced hyperpyrexia in hyperthermic rat assessed as rectal temperature at 100 mg/kg, sc administered 18 hrs after yeast challenge measured after 4 hrs (Rvb=39.17 +/- 0.20 degC); type: functional; conditions: route subcutaneous
Rattus norvegicus [16] = test: Antipyretic activity against yeast-induced hyperpyrexia in hyperthermic rat assessed as rectal temperature at 100 mg/kg, sc administered 18 hrs after yeast challenge measured after 2 hrs (Rvb=39.11 +/- 0.26 degC); type: functional; conditions: route subcutaneous
Rattus norvegicus [17] = test: Antipyretic activity against yeast-induced hyperpyrexia in hyperthermic rat assessed as rectal temperature at 100 mg/kg, sc administered 18 hrs after yeast challenge measured after 1 hr (Rvb=39.24 +/- 0.22 degC); type: functional; conditions: route subcutaneous
Rattus norvegicus [18] = test: Antipyretic activity against yeast-induced hyperpyrexia in hyperthermic rat assessed as rectal temperature at 100 mg/kg, sc administered 18 hrs after yeast challenge measured after 3 hrs (Rvb=39.20 +/- 0.24 degC); type: functional; conditions: route subcutaneous
Rattus norvegicus [19] = test: Antiinflammatory activity against carrageenan-induced foot paw edema in rat assessed as reduction in paw size at 20 mg/kg, sc administered 30 mins before carrageenan challenge measured after 3 hrs relative to control; type: functional; design: scale not given: the % may be the effect or the level left; conditions: route subcutaneous

Structure (SMILES)	Activity (Mus musculus [1])	Activity (Mus musculus [2])	Activity (Mus musculus [3])	Activity (Mus musculus [4])	Activity (Rattus norvegicus [5])	Activity (Rattus norvegicus [6])	Activity (Rattus norvegicus [7])	Activity (Rattus norvegicus [8])	Activity (Mus musculus [9])	Activity (Rattus norvegicus [10])	LD50 at 24 h [11]	Activity (Mus musculus [12])	Activity (Mus musculus [13])	Activity (Mus musculus [14])	Activity (Rattus norvegicus [15])	Activity (Rattus norvegicus [16])	Activity (Rattus norvegicus [17])	Activity (Rattus norvegicus [18])	Activity (Rattus norvegicus [19])
O=C([O-])Cc1ccccc1Nc1c(Cl)cccc1Cl.[Na+] [DICLOFENAC SODIUM]	55.82%	68.44%	75.24%	74.02%															
CN(C)c1ccc(-c2cc(-c3c(O)ccc4c(-c5ccccc5)cc(=O)oc34)[nH]c(=N)c2C#N)cc1					18.85%	38.17 °C	38.39 °C	38.89 °C	9.41%	38.38 °C	310 mg/kg	11.52%	12%	3.76%					
CN(C)c1ccc(C2CC(c3c(O)ccc4c(-c5ccccc5)cc(=O)oc34)=NN2)cc1 (centres undefined)					8.7%	38.9 °C	38.91 °C	38.91 °C	1.41%	38.91 °C	310 mg/kg	2.35%	1.64%	2.11%					
COc1ccc(C2CC(c3c(O)ccc4c(-c5ccccc5)cc(=O)oc34)=NN2)cc1 (centres undefined)					8.7%	38.91 °C	38.91 °C	39.15 °C	10%	38.81 °C	330 mg/kg	5.23%	10.71%	0.71%					
CN(C)c1ccc(C2CC(c3c(O)ccc4c(-c5ccccc5)cc(=O)oc34)=NN2c2ccccc2)cc1 (centres undefined)					5.78%	38.01 °C	38.43 °C	38.88 °C	39.76%	38.4 °C	330 mg/kg	20.47%	40.23%	6.82%					
COc1ccc(-c2cc(-c3c(O)ccc4c(-c5ccccc5)cc(=O)oc34)[nH]c(=N)c2C#N)cc1					15.94%	38.81 °C	38.81 °C	38.91 °C	4.7%	38.9 °C	330 mg/kg	1.17%	0.7%	1.88%					
CN(C)c1ccc(C2CC(c3c(O)ccc4c(-c5ccccc5)cc(=O)oc34)=NN2c2ccc([N+](=O)[O-])cc2[N+](=O)[O-])cc1 (centres undefined)					17.06%	38.1 °C	38.42 °C	38.91 °C	36.94%	38.54 °C	330 mg/kg	19.05%	35.29%	7.29%					
CC(=O)Nc1ccc(O)cc1 [ACETAMINOPHEN]															37.16 °C	37.2 °C	37.38 °C	37.27 °C	
O=c1cc(-c2ccccc2)c2ccc(O)c(C3=NN(c4ccc([N+](=O)[O-])cc4[N+](=O)[O-])C(c4ccc(Cl)cc4)C3)c2o1 (centres undefined)					11.27%	38.91 °C	38.91 °C	38.94 °C	0.93%	38.81 °C	390 mg/kg	0.93%	1.4%	1.4%					
C/C(=N\c1ccccc1N)c1c(O)ccc2c(-c3ccccc3)cc(=O)oc12					8.7%	38.41 °C	38.81 °C	38.9 °C	9.85%	38.61 °C	370 mg/kg	9.62%	12.44%	1.64%					
COc1cc(OC)c(-c2cc(-c3c(O)ccc4c(-c5ccccc5)cc(=O)oc34)[nH]c(=O)c2C#N)c(OC)c1					5.78%	38.91 °C	38.81 °C	38.91 °C	0.47%	38.91 °C	390 mg/kg	0.7%	0.7%	1.41%					
N#Cc1c(-c2ccccc2O)cc(-c2c(O)ccc3c(-c4ccccc4)cc(=O)oc23)[nH]c1=O					4.33%	38.2 °C	38.47 °C	38.91 °C	41.84%	38.34 °C	290 mg/kg	19.14%	30.49%	6.38%					
COc1ccc(/C=C/C(=O)c2c(O)ccc3c(-c4ccccc4)cc(=O)oc23)cc1					12.35%	38.91 °C	38.95 °C	39.11 °C	9.41%	38.91 °C	290 mg/kg	9.41%	9.41%	3.52%					
O=c1cc(-c2ccccc2)c2ccc(O)c(C3=NNC(c4ccc(Cl)cc4)C3)c2o1 (centres undefined)					17.4%	38.84 °C	38.9 °C	38.91 °C	0.71%	38.9 °C	310 mg/kg	1.65%	1.65%	1.18%					
N#Cc1c(-c2cccnc2)cc(-c2c(O)ccc3c(-c4ccccc4)cc(=O)oc23)[nH]c1=N					16.21%	38.94 °C	38.91 °C	38.91 °C	7.49%	39.11 °C	370 mg/kg	5.15%	7.02%	5.15%					
O=C(/C=C/c1ccc(Cl)cc1)c1c(O)ccc2c(-c3ccccc3)cc(=O)oc12					20.27%	38.91 °C	38.84 °C	38.91 °C	0%	39.05 °C	330 mg/kg	1.65%	0.94%	0.94%					
Cc1ccc(-c2cc(C(F)(F)F)nn2-c2ccc(S(N)(=O)=O)cc2)cc1 [CELECOXIB]																			39.67%
N#Cc1c(-c2ccccc2O)cc(-c2c(O)ccc3c(-c4ccccc4)cc(=O)oc23)[nH]c1=N					16.31%	38.91 °C	38.91 °C	38.94 °C	9.62%	39.01 °C	310 mg/kg	9.62%	9.38%	2.58%					
COc1ccc(-c2cc(-c3c(O)ccc4c(-c5ccccc5)cc(=O)oc34)[nH]c(=O)c2C#N)cc1					5.78%	38.71 °C	38.64 °C	38.91 °C	0.94%	38.81 °C	330 mg/kg	9.47%	2.84%	1.18%					
C/C(=N\Nc1ccc([N+](=O)[O-])cc1[N+](=O)[O-])c1c(O)ccc2c(-c3ccccc3)cc(=O)oc12					0.67%	38.05 °C	38.34 °C	38.93 °C	16.7%	38.42 °C	370 mg/kg	13.41%	18.35%	4.47%					

From ChEMBL document CHEMBL1154088, “Synthesis, biological evaluation and docking studies of novel benzopyranone congeners for their expected activity as anti-inflammatory, analgesic and antipyretic agents” (Bioorg Med Chem, 2009)
